The experiment deals with T1, CRF1 receptors (Homo sapiens, UniProt P34998).
T1 construct: endogenous in cells; host or cells: IMR-32 cells, transformed with 2.5 µM 5'-bromo-2'-deoxyuridine for 10 days; membrane preparation
T1 sequence (P34998 24-415): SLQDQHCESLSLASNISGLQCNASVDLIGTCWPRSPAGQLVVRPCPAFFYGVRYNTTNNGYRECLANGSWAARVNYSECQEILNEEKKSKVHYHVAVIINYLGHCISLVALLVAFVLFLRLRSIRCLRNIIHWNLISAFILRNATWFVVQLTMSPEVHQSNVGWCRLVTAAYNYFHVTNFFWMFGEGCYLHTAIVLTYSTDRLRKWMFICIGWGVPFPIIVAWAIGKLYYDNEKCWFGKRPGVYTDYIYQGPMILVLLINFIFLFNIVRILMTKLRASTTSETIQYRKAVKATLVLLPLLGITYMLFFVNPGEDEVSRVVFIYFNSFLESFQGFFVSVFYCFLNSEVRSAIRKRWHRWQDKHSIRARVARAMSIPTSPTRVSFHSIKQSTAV
The experiment is described as follows: CRF1 receptor radioligand binding assay ([125I]-oCRF competition, IMR-32 cell membranes). Particulars: IMR-32 cell membranes, [125I]-oCRF 100 pM; read-out: Ki (CRF-1R). The essentials:
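Buffer: Tris pH 7.2 with MgCl2, BSA, Triton X-100, aprotinin, leupeptin; reaction stopped with ice-cold wash and filtered. Nonspecific binding set with 10 μM oCRF.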
On to `CCCN(CCOC)Cc1c(C(F)(F)F)nc2n(-c3c(C)cc(C)cc3C)c(Cl)cn12` [Example 342, [6-Chloro-2-trifluoromethyl-7-(2,4,6-trimethyl-phenyl)-7H-imidazo[1,2-a]imidazol-3-ylmethyl]-(2-methoxy-ethyl)-propyl-amine], for which the inhibition constant Ki was less than 100 nM.
With `CCCN(CC1CC1)C(=O)c1c(CC)nc2n(-c3c(C)cc(C)cc3C)c3ccc(F)cc3n12` [Example 144, 2-Ethyl-5-fluoro-8-(2,4,6-trimethyl-phenyl)-8H-1,3a,8-triaza-cyclopenta[a]indene-3-carboxylic acid cyclopropylmethyl-propyl-amide], the Ki is less than 100 nM.
As for `CCN(CCC1CC1)Cc1c(C(F)(F)F)nc2n1CCCN2c1c(C)cc(C)cc1C` [Example 88, (2-Cyclopropyl-ethyl)-ethyl-[2-trifluoromethyl-8-(2,4,6-trimethyl-phenyl)-5,6,7,8-tetrahydro-imidazo[1,2-a]pyrimidin-3-ylmethyl]-amine], the Ki is less than 1000 nM.
On to `CCc1nc2n(c1C(=O)N(CC1CC1)CC(F)(F)C(F)(F)F)CCN2c1c(C)cc(C)cc1C` [Example 7, 2-Ethyl-7-(2,4,6-trimethyl-phenyl)-6,7-dihydro-5H-imidazo[1,2-a]imidazole-3-carboxylic acid cyclopropylmethyl-(3,3,3,2,2-pentafluoro-propyl)-amide], for which the inhibition constant (Ki) was less than 100 nM.
For `CCCCN(CC)Cc1c(C(F)(F)F)nc2n(-c3c(C)cc(C)cc3C)c(Cl)cn12` [Example 346, Butyl-[6-chloro-2-trifluoromethyl-7-(2,4,6-trimethyl-phenyl)-7H-imidazo[1,2-a]imidazol-3-ylmethyl]-ethyl-amine], the Ki was less than 100 nM.
Next, `C=CCN(CC=C)Cc1c(C(F)(F)F)nc2n(-c3c(C)cc(C)cc3C)c3ncccc3n12` [Example 219, Diallyl-[2-trifluoromethyl-8-(2,4,6-trimethyl-phenyl)-8H-1,3a,7,8-tetraaza-cyclopenta[α]inden-3-ylmethyl]-amine]: less than 1000 nM; `CCCN(CCc1ccccc1)Cc1c(C(F)(F)F)nc2n(-c3ccc(C(C)C)cc3Br)c3ccccc3n12` [Example 193, [8-(2-Bromo-4-isopropyl-phenyl)-2-trifluoromethyl-8H-1,3a,8-triaza-cyclopenta[α]inden-3-ylmethyl]-phenethyl-propyl-amine]: less than 1000 nM.
The same measure for `CCc1nc2n(c1C(=O)N(CC1CC1)CC(F)(F)C(F)(F)F)CCN2c1c(C)cc(Cl)cc1Cl` [Example 32, 7-(2,4-Dichloro-6-methyl-phenyl)-2-ethyl-6,7-dihydro-5H-imidazo[1,2-a]imidazole-3-carboxylic acid cyclopropylmethyl-(2,2,3,3,3-pentafluoro-propyl)-amide]: less than 100 nM; for `CCc1nc2n(-c3c(C)cc(C)cc3C)c(Cl)cn2c1C(=O)N(CC)CC1CC1` [Example 298, 6-Chloro-2-ethyl-7-(2,4,6-trimethylphenyl)-7H-imidazo[1,2-a]imidazole-3-carboxylic acid N-cyclopropylmethyl-N-ethylamide]: less than 10 nM; for `Cc1cc(C)c(-n2c3ccccc3n3c(CN(CCC4CC4)CC(F)(F)F)c(C(F)(F)F)nc23)c(C)c1` [Example 169, (2-Cyclopropyl-ethyl)-(2,2,2-trifluoro-ethyl)-[2-trifluoromethyl-8-(2,4,6-trimethyl-phenyl)-8H-1,3a,8-triaza-cyclopenta[α]inden-3-ylmethyl]-amine]: less than 1000 nM.
Next, `CCN(CCC1CC1)Cc1c(C(F)(F)F)nc2n(-c3c(C)cc(C)cc3C)c3ccccc3n12` [Example 172, (2-Cyclopropyl-ethyl)-ethyl-[2-trifluoromethyl-8-(2,4,6-trimethyl-phenyl)-8H-1,3a,8-triaza-cyclopenta[α]inden-3-ylmethyl]-amine]: less than 10000 nM; `CCCN(Cc1c(C(F)(F)F)nc2n(-c3ccc(C(C)C)cc3Br)c3ccccc3n12)CC(F)(F)C(F)(F)F` [Example 205, [8-(2-Bromo-4-isopropyl-phenyl)-2-trifluoromethyl-8H-1,3a,8-triaza-cyclopenta[α]inden-3-ylmethyl]-(2,2,3,3,3-pentafluoro-propyl)-propyl-amine]: less than 10000 nM.
`C=CCN(CC=C)Cc1c(C(F)(F)F)nc2n(-c3ccc(C(C)C)cc3Br)c3ccccc3n12` [Example 192, Diallyl-[8-(2-bromo-4-isopropyl-phenyl)-2-trifluoromethyl-8H-1,3a,8-triaza-cyclopenta[α]inden-3-ylmethyl]-amine]: the inhibitory constant (Ki) was less than 1000 nM.
For `CCc1nc2n(c1C(=O)N(CC1CC1)CC(F)(F)F)CCN2c1ccc(C(C)C)cc1Br` [Example 34, 7-(2-Bromo-4-isopropyl-phenyl)-2-ethyl-6,7-dihydro-5H-imidazo[1,2-a]imidazole-3-carboxylic acid cyclopropylmethyl-(2,2,2-trifluoro-ethyl)-amide], the inhibition constant Ki was less than 1000 nM.
In the case of `CCc1nc2n(c1C(=O)N(CCC(F)(F)F)CC1CC1)CCN2c1c(C)cc(C)cc1Cl` [Example 29, 7-(2-Chloro-4,6-dimethyl-phenyl)-2-ethyl-6,7-dihydro-5H-imidazo[1,2 a]imidazole-3-carboxylic acid cyclopropylmethyl-(3,3,3-trifluoro-propyl)-amide], the Ki was less than 1000 nM.
Turning to `CCCN(CC1CC1)C(=O)c1c(C)nc2n(-c3c(C)cc(C)cc3C)c3ccccc3n12` [Example 140, 2-Methyl-8-(2,4,6-trimethyl-phenyl)-8H-1,3a,8-triaza-cyclopenta[α]indene-3-carboxylic acid cyclopropylmethyl-propyl-amide], the inhibition constant Ki is less than 1000 nM.
Consider `CCCN(CC(F)(F)F)C(=O)c1c(CC)nc2n1CCN2c1ccc(C(C)C)cc1Br` [Example 36, 7-(2-Bromo-4-isopropyl-phenyl)-2-ethyl-6,7-dihydro-5H-imidazo[1,2-a]imidazole-3-carboxylic acid propyl-(2,2,2-trifluoro-ethyl)-amide], for which the Ki was less than 1000 nM.
As to `CCCN(CCC)C(=O)c1c(CC)nc2n(-c3ccc(Cl)cc3Cl)c(Cl)cn12` [Example 287, 6-Chloro-2-ethyl-7-(2,4-dichlorophenyl)-7H-imidazo[1,2-a]imidazole-3-carboxylic acid N,N-dipropylamide], the inhibition constant (Ki) is less than 10 nM.
With `CCCCN(C)Cc1c(C(F)(F)F)nc2n1CCCN2c1c(C)cc(C)cc1C` [Example 69, Butyl-methyl-[2-trifluoromethyl-8-(2,4,6-trimethyl-phenyl)-5,6,7,8-tetrahydro-imidazo[1,2-a]pyrimidin-3-ylmethyl]-amine], the Ki was less than 1000 nM.
As to `CCCCN(CC)Cc1c(C(F)(F)F)nc2n1CCCN2c1c(C)cc(C)cc1Cl` [Example 108, Butyl-[8-(2-chloro-4,6-dimethyl-phenyl)-2-trifluoromethyl-5,6,7,8-tetrahydro-imidazo[1,2-a]pyrimidin-3-ylmethyl]-ethyl-amine], the Ki was less than 1000 nM.
With `CCCN(CCC(F)(F)F)C(=O)c1c(CC)nc2n1CCN2c1c(C)cc(C)cc1Br` [Example 45, 7-(2-Bromo-4,6-dimethyl-phenyl)-2-ethyl-6,7-dihydro-5H-imidazo[1,2-a]imidazole-3-carboxylic acid propyl-(3,3,3-trifluoro-propyl)-amide], the Ki is less than 1000 nM.
Take `CCN(Cc1c(C(F)(F)F)nc2n1CCCN2c1c(C)cc(C)cc1Cl)CC1CCC1` [Example 137, [8-(2-Chloro-4,6-dimethyl-phenyl)-2-trifluoromethyl-5,6,7,8-tetrahydro-imidazo[1,2-a]pyrimidin-3-ylmethyl]-cyclobutylmethyl-ethyl-amine]: the Ki was less than 1000 nM.
On to `Cc1cc(C)c(-n2c3ncccc3n3c(CN(CCc4ccccc4)CCC(F)(F)F)c(C(F)(F)F)nc23)c(C)c1` [Example 226, Phenethyl-[2-trifluoromethyl-8-(2,4,6-trimethyl-phenyl)-8H-1,3a,7,8-tetraaza-cyclopenta[a]inden-3-ylmethyl]-(3,3,3-trifluoro-propyl)-amine], for which the inhibitory constant (Ki) is less than 1000 nM.
`Cc1cc(C)c(-n2c(Cl)cn3c(CN(CCC(F)(F)F)Cc4ccc(F)cc4)c(C(F)(F)F)nc23)c(C)c1` [Example 333]: the inhibition constant Ki was less than 100 nM.
Take `Cc1cc(C)c(N2CCCn3c2nc(C(F)(F)F)c3CN(CCC(F)(F)F)Cc2ccccc2)c(Cl)c1` [Example 125, Benzyl-[8-(2-chloro-4,6-dimethyl-phenyl)-2-trifluoromethyl-5,6,7,8-tetrahydro-imidazo[1,2-a]pyrimidin-3-ylmethyl]-(3,3,3-trifluoro-propyl)-amine]: the Ki was less than 1000 nM.
As to `Cc1cc(C)c(N2CCCn3c2nc(C(F)(F)F)c3CN2CCSCC2)c(C)c1` [Example 61, 3-Thiomorpholin-4-ylmethyl-2-trifluoromethyl-8-(2,4,6-trimethyl-phenyl)-5,6,7,8-tetrahydro-imidazo[1,2-a]pyrimidine], the Ki was less than 1000 nM.
The same measure for `CCCN(Cc1c(C(F)(F)F)nc2n(-c3c(C)cc(C)cc3C)c(Cl)cn12)CC1CC1` [Example 303, [6-Chloro-2-trifluoromethyl-7-(2,4,6-trimethyl-phenyl)-7H-imidazo[1,2-a]imidazol-3-ylmethyl]-cyclopropylmethyl-propyl-amine]: less than 10 nM; for `CCCN(CC1CC1)C(=O)c1c(C(F)(F)F)nc2n(-c3c(C)cc(C)cc3C)c3ccccc3n12` [Example 142, 2-trifluoromethyl-8-(2,4,6-trimethylphenyl)-8H-1,3a,8-triaza-cyclopenta[a]indene-3-carboxylic acid cyclopropylmethyl-propyl-amide]: less than 10000 nM.

The record behind these values is US7125990B2, “Imidazolyl derivatives as corticotropin releasing factor inhibitors” (Bristol-Myers Squibb COmpany, priority 2001, dated 2006).
